The values that follow come from publication PMC7195332 (Bioorganic & Medicinal Chemistry Letters, 2019).

Experiment [1] concerns the target CypD (30-207 aa, human recombinant) (Homo sapiens, UniProt P30405). Put plainly: Cyclophilin D biochemical FP assay. Type of experiment: binding. As to conditions: for Biochemical CypD FP assay LE: ligand binding efficiency based on biochemical FP IC50s.
The target of experiment [2] is Recombinant human Cyclophilin D protein (amino acids 44-207, K175I) (Homo sapiens, UniProt P30405, K175I). The experiment is described as follows: CypD SPR binding assay. Conditions: for CypD LE (ligand binding efficiency based on the SPR KDs): fragment hits; for SPR binding CypD LE: ligand binding efficiency based on SPR KDs.
Sequence of Recombinant human Cyclophilin D protein (amino acids 44-207, K175I) (P30405 44-207 K175I): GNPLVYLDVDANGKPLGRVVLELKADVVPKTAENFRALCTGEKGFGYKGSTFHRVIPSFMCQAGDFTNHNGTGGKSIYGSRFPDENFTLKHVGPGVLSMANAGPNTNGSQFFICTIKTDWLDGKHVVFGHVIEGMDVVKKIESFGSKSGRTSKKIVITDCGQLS

Sequence of CypD (30-207 aa, human recombinant) (P30405 30-207): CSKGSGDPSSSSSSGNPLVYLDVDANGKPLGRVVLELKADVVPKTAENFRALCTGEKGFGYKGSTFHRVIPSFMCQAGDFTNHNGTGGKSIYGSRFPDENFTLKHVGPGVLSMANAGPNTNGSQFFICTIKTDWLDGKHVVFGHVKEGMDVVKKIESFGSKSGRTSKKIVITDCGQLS

Regarding `CSc1ccccc1[C@H]1CCCN1C(=O)CNC(=O)NCc1ccc(N)cc1` [compound 2, reference compound], the IC50 (in general, the concentration needed to halve the response being measured) in experiment [1] amounted to 0.75 µM. In addition, in experiment [2], the Kd (commonly the concentration at which binding is half-saturated) is 0.23 µM.
For the molecule `O[C@@H]1CO[C@@H]2C[C@H]1Nc1ccc(F)cc12` [compound 3], the “CypD LE (ligand binding efficiency based on the SPR KDs)” value in experiment [2] is reported as 0.2.
On the same count and under the same terms, the figure for `CCN1Cc2cc3c(cc2NCCC1=O)OCO3` [compound 4] is 0.16.
Turning to `CCn1nnc(NC(=O)c2ccccc2)n1` [compound 6], the “CypD LE (ligand binding efficiency based on the SPR KDs)” value in experiment [2] is 0.21.
As for `O=C(NCc1ccccn1)C(=O)NC1CCCC1` [compound 8], in experiment [2], the “CypD LE (ligand binding efficiency based on the SPR KDs)” value is given as 0.22.
For `CSc1ccccc1[C@H]1CCCN1C(=O)CN(C)C(=O)NCc1ccc2c(c1)[C@H]1C[C@@H](N2)[C@H](O)CO1` [compound 18], in experiment [1], the IC50 came out at 10 µM.
With `CSc1ccccc1[C@H]1CCCN1C(=O)CNC(=O)CCc1ccc2c(c1)[C@@H]1C[C@H](N2)[C@H](O)CO1` [compound 19], the IC50 in experiment [1] is 54 µM.
`CCN1Cc2cc(CNC(=O)NCC(=O)N3CCC[C@@H]3c3ccccc3SC)ccc2NCCC1=O` [compound 20]: the IC50 in experiment [1] was 0.19 µM. The “SPR binding CypD LE” value in experiment [2] is given as 0.25.
For the molecule `CCN1Cc2cc(NC(=O)NCC(=O)N3CCC[C@@H]3c3ccccc3SC)ccc2NCCC1=O` [compound 21], in experiment [1], the 50% inhibitory concentration (IC50) was above 100 µM. Moreover, the “SPR binding CypD LE” value in experiment [2] turned out to be 0.13.
On to `CCN1Cc2cc(CCC(=O)NCC(=O)N3CCC[C@@H]3c3ccccc3SC)ccc2NCCC1=O` [compound 22], for which, in experiment [1], the IC50 was 4.1 µM and the “Biochemical CypD FP assay LE” value is 0.21. The “SPR binding CypD LE” value in experiment [2] was found to be 0.21.
Take `CCN1Cc2cc(CCC(=O)NCCC(=O)N3CCC[C@@H]3c3ccccc3SC)ccc2NCCC1=O` [compound 23]: the half-inhibitory concentration (IC50) in experiment [1] was above 100 µM. For the same molecule, in experiment [2], the “SPR binding CypD LE” value came out at 0.12.
For the molecule `O=C(NCc1ccc2c(c1)[C@H]1C[C@@H](N2)[C@H](O)CO1)C(=O)N1CCCC1` [compound 29], in experiment [1], the IC50 is above 100 µM. Further, the dissociation constant (Kd) in experiment [2] is above 1500 µM.
Turning to `O=C(NCc1ccc2c(c1)[C@@H]1C[C@H](N2)[C@H](O)CO1)C(=O)N1CCCC1` [compound 30], the “Biochemical CypD FP assay LE” value in experiment [1] came to 0.16. Further, the “SPR binding CypD LE” value in experiment [2] is 0.19.
Regarding `O=C(NCc1ccc2c(c1)[C@@H]1C[C@H](N2)[C@H](O)CO1)C(=O)NC1CCCC1` [compound 30], the IC50 in experiment [1] worked out at 870 µM. The dissociation constant Kd in experiment [2] was found to be 217 µM.
For `CSc1ccccc1[C@H]1CCCN1C(=O)C(=O)NCc1ccc2c(c1)[C@H]1C[C@@H](N2)[C@H](O)CO1` [compound 31], the IC50 in experiment [1] is above 100 µM. Also, the “SPR binding CypD LE” value in experiment [2] was 0.16.
In the case of `CSc1ccccc1[C@@H]1CCCN1C(=O)C(=O)NCc1ccc2c(c1)[C@H]1C[C@@H](N2)[C@H](O)CO1` [compound 32], in experiment [1], the IC50 was above 30 µM.
With `CCN1Cc2cc(CNC(=O)CN3C(=O)[C@@H]4[C@H]5CC[C@H](C5)[C@@H]4C3=O)ccc2NCCC1=O` [compound 34], in experiment [1], the half-maximal inhibitory concentration (IC50) amounted to 80 µM and the “Biochemical CypD FP assay LE” value turned out to be 0.18. Moreover, in experiment [2], the Kd stood at 51 µM.
Consider `CCN1Cc2cc(NC(=O)CN3C(=O)C4C(C3=O)[C@H]3CC[C@@H]4C3)ccc2NCCC1=O` (stereo partly drawn) [compound 35], for which the IC50 in experiment [1] was above 1000 µM.
With `Nc1ccc(CCNC(=O)CN2C(=O)C3C4CCC(C4)C3C2=O)cc1` (stereo not drawn) [compound 37], in experiment [1], the IC50 worked out at 490 µM and the “Biochemical CypD FP assay LE” value came to 0.18.
For the molecule `O=C(CN1C(=O)C2C3CCC(C3)C2C1=O)NCc1ccc2c(c1)CCCN2` (stereo not drawn) [compound 38], in experiment [1], the “potency improvement compared with 36” value amounted to 2 fold.
For the molecule `O=C(CN1C(=O)[C@@H]2[C@@H]3CC[C@@H](C3)[C@@H]2C1=O)NCc1ccc2c(c1)[C@H]1C[C@@H](N2)[C@H](O)CO1` [compound 39], in experiment [1], the IC50 worked out at 1.7 µM and the “Biochemical CypD FP assay LE” value was 0.26. Further, the “SPR binding CypD LE” value in experiment [2] was determined as 0.26.
With `O=C(CN1C(=O)[C@@H]2[C@H]3CC[C@H](C3)[C@@H]2C1=O)NCc1ccc2c(c1)[C@H]1C[C@@H](N2)[C@H](O)CO1` [compound 40, 2-(exo-3,5-Dioxo-4-aza-tricyclo[5.2.1.02,6]dec-4-yl)-N-((1R,9R,10S)-10-hydroxy-12-oxa-8-aza-tricyclo[7.3.1.02,7]trideca-2(7),3,5-trien-4-ylmethyl)-acetamide], in experiment [1], the IC50 worked out at 0.735 µM and the “Biochemical CypD FP assay LE” value is 0.27. Also, the “SPR binding CypD LE” value in experiment [2] is on record as 0.25.
